Source: patent US10864269B2, “Therapeutic combinations comprising anti-CD73 antibodies and uses thereof” (MedImmune Limited, priority 2014, dated 2020)

Experiments:
[1] = system: CD4+CD25− T cell proliferation; experiment: AMP-mediated suppression of CD4+CD25− T cell proliferation; format: cell-based; conditions: primary human CD4+CD25− T cells, 100 or 200 μM AMP, 72 hours, CFSE
Protocol: In an assay for AMP-mediated T-cell suppression, primary human CD4^+ T cells depleted of CD25^+ cells were isolated from the content of leukocyte cones and used as effector cells; each cone was processed separately. Briefly, the content from a leukocyte cone was diluted in PBS, then layered over FICOLL-PAQUE® Plus (GE Healthcare, Chalfont St Giles, UK) and centrifuged at 400×g for 40 minutes with brakes turned off. Peripheral blood mononuclear cells (PBMC) were then isolated from the interface and washed with PBS by centrifugation at 200×g for 10 minutes. Supernatant was discarded and cells were suspended in PBS. Viable cells were determined, then pelleted at 350×g for 5 minutes and suspended in ROBOSEP buffer (Stem Cell, Grenoble, France) at a concentration of 5×10^7 per mL. […]
Isolated effector cells were labeled with CFSE probe (3 μM) using the CELLTRACE CFSE cell proliferation kit (Life Technologies, Paisley, UK) at a cell density of 1×10^6 cells per mL in PBS containing 0.1% BSA with an incubation period of 15 minutes at 37° C. […] Phen0203 hIgG1 was received as a ready-to-use formulation (Medlmmune, Gaithersburg, Md.) and was diluted in phosphate-buffered saline (PBS). R347 was received as a ready-to-use formulation (Medlmmune, Gaithersburg, Md.) and was diluted in PBS. […]

IFNγ = experiment: Mixed leukocyte reaction, IFNγ supernatant levels; format: cell-based; conditions: human mixed leukocyte reaction, 72 hours, 1 μM each agent
Protocol: (§1) The release of immune activating cytokines IFNγ and TNFα was evaluated in human mixed leukocyte cultures with anti-CD73 monoclonal antibody alone and in combination with an adenosine receptor inhibitor (A2ARi). The levels of IFNγ and TNFα in supernatants were detected by ELISA. Human peripheral blood lymphocytes were set up in a mixed leukocyte reaction for 72 hours and stimulated with anti-CD73 alone, A2AR inhibitor alone or both agents. Peripheral blood mononuclear cells from pairwise combinations of 8 donors were incubated for 72 hours in the presence of 1 μM anti-CD73 antibody MEDI9447 and 1 μM A2ARi SCH58261, either alone or in combination. After incubation, supernatant levels of Interferon gamma (IFNγ) and Tumor Necrosis Factor Alpha (TNFα) were measured using a Mesoscale ELISA plate. The levels of IFNγ and TNFα observed after incubation with each compound were plotted as duplicate fold-control values using levels from incubation with an isotype control antibody as a negative control.

TNFα = experiment: Mixed leukocyte reaction, TNFα supernatant levels; format: cell-based; conditions: human mixed leukocyte reaction, 72 hours, 1 μM each agent
Protocol: as §1

[2] = system: CT26 murine colon carcinoma; experiment: CT26 syngeneic tumor model, MEDI9447 mIgG1 with anti-PD-1; format: in vivo, Balb/C mice
Protocol: Syngeneic tumors were established by subcutaneous (SC) injection of 0.1 ml of 5×10^6 CT26 cells/ml suspended in HBSS into the right flanks of 8- to 10-week-old animals.
Tumors were measured by caliper and the volumes of tumors (TV) were calculated using the following formula: TV=(L×W^2)/2 (1)
Mice were randomized into groups based on bodyweight. There were no animal substitutions. 60 female Balb/c mice were used in this study.
Animals were randomly assigned into 6 groups. Animals were administered MEDI9447(mIgG1). Test articles were administered by intraperitoneal (IP) injection twice weekly starting on Day 3.
CT26 murine colon carcinoma were implanted into syngeneic Balb/C mice and treated with anti-CD73 (MEDI9447 mIgG1; 10 mg/kg), anti-PD1 (0.5 mg/kg) or the combination (10 mg/kg anti-CD73 and 0.5 mg/kg anti-PD1). […] Tumor volumes from each group of animals were plotted for individual animals out to study day 40. No control group mice were tumor free by the end of the 40 day study period (See FIG. 6). […] None of the control group mice were tumor free by the end of the study. CT26 tumors were measured in mice treated with anti-CD73 (MEDI9447 mIgG1), anti-PD1 or the combination of anti-CD73 and anti-PD1. Mice were measured until study day 40, and humanely sacrificed once tumors reached 2000 mm^3. […] Median survival increased from 25 and 33 days (anti-CD73 and anti-PD1, respectively) compared to “undefined” at day 40 for the combination.

[3] = study day 40, anti-CD73 10 mg/kg, anti-PD1 0.5 mg/kg, ip 2x weekly, 4 doses

Compound | T cell proliferation in the presence of AMP [1] | IFNγ supernatant levels (IFNγ) | TNFα supernatant levels / secretion (TNFα) | Median survival ([2]; CT26, followed until study day 40) [days] | Survival [2, 3] [%] | Tumor free mice [2, 3] [%]
Nc1ncnc2c1ncn2[C@@H]1O[C@H](COP(=O)(O)CP(=O)(O)O)[C@@H](O)[C@H]1O [APCP, adenosine 5′-(α,β-methylene)diphosphate] | increase of T-cell proliferation |  |  |  |  | 
Nc1nc2c(cnn2CCc2ccccc2)c2nc(-c3ccco3)nn12 [SCH58261, reference compound] | increase of T-cell proliferation | capable of inducing | capable of inducing |  |  | 
MEDI9447 mIgG1: anti-CD73 antibody MEDI9447 in murine IgG1 format |  | capable of inducing | capable of inducing | 25 | 10 | 10
